Non-standard residues stand in square brackets, D forms with d. Residues, ends and D or L forms follow the SMILES beside them. Groups on a side chain read outwards from the residue. *: point of attachment. dPhe(4-Cl) = N[C@H](Cc1ccc(Cl)cc1)C(=O)O; NEt2 = CCN(CC)*
Experiments:
cellular immune response = experiment: Cellular immune response (rosette formation against BRBC antigen); type: in vivo; settings: mice; 100 µg/mouse
Text: (§1) The immunosuppressive side effect of cytostatics used in tumour therapy is commonly known. This effect can be compensated to a certain grade by various immunostimulants (endotoxin, levamisole). Polypeptides with much […] molecular weights (about 40,000 to 80,000) are also capable of protecting against immunosuppressive effect [Gaál et al: J. Biol. Resp. Modif., 5, 148-159 (1986)]. The molecular weight of the novel polyanionic P-GFLG-OH macromolecule tested by us is about 10,000, that of MI-1892 is about 2000, i.e. relatively low; therefore, their immunostimulatory activity was unexpected.

Ishikawa = settings: 30 µM, peptide alone, two treatments on days 2 and 4
Experimental: The procedure of treatment was as follows. After trypsinization the cells, 400,000 cells of MCF-7, MDA-MB-231 human mammary carcinoma, PC3 human prostate carcinoma or Ishikawa human endometrium tumour each were passed into Petri dishes of 10 cm in diameter. Starting from the day following transfer, the cells were treated with the substances to be tested in solution prepared with the nutrient medium during the exponential growth phase. The cultures were treated with 1 to 50 µM (calculated for the total volume of the culture) or MI-1544 GnRH antagonist, MI-1892 chicken GnRH antagonist or SJ-1004 GnRH […] on the 7th day.

MDA-MB-231 xenograft = experiment: In vivo antitumour effect on MDA-MB-231 xenograft in immunosuppressed mice; design: species or system CBA/Ca mice; settings: Table V
Experimental: (§2) The immunosuppression of mice was carried out by using the method of Steel et al. [Br. J. Cancer, 37, 224-230 (1978)]. Immunosuppression and xeno-transplantation
(§3) CBA-Ca female mice of about 6 weeks old were thymectomized and then, after one week, they were irradiated with 60Co (whole body irradiation; the lethal dose is 9.5 Gray). Within 24 hours 3 to 5 x 10^5 myelocytes were injected into the animals. Beneath the skin of the immunosuppressed mice 2 x 10^7 tumour cells or, in the case of later passages, […] were implanted. […] The treatment with steroid hormone was stopped by at least one week before beginning the investigation.
(§4) Recent investigations have begun on 28 animals bearing MCF-7 xenograft and on 28 animals bearing MDA-MB-231 xenograft. On animals bearing MCF-7 tumour the treatment was commenced in the 5th week following xeno-transplantation; the tumour volume was 205 to 225 mm^3. On animals bearing MDA-MB-231 tumour, the treatment was started in the 4th week after xeno-transplantation with a tumour volume of 140 to 150 mm^3. […] The control groups were daily treated with physiological saline s.c. (Each treated group consisting of 7 animals).
A more recent study was started on 28 animals bearing MDA-MB-231 xenograft. The treatment was begun in the 4th or 5th week following xenotransplantation. The tumour volume was 0.165 to 0.194 cm^3. […] (For treatment of the control group, see the preceding Examples). Each group consisted of 7 animals.

PC3 = experiment: In vitro inhibition of cell proliferation (Example 19); type: cell-based, human; settings: 30 µM, peptide alone, two treatments on days 2 and 4
Experimental: The procedure of treatment was as follows. After trypsinization the cells, 400,000 cells of MCF-7, MDA-MB-231 human mammary carcinoma, PC3 human prostate carcinoma or Ishikawa human endometrium tumour each were passed into Petri dishes of 10 cm in diameter. Starting from the day following transfer, the cells were treated with the substances to be tested in solution prepared with the nutrient medium during the exponential growth phase. The cultures were treated with 1 to 50 µM (calculated for the total volume of the culture) or MI-1544 GnRH antagonist, MI-1892 chicken GnRH antagonist or SJ-1004 GnRH antagonist analogues as well as synthetic lamprey GnRH-III hormone every two days and the cell count was determined on the 7th day.

[1] = system: PC3 human prostate carcinoma cell line; experiment: Inhibition of colony formation (dose-survival relation, Example 18); type: cell-based; settings: 50 µM
Experimental: (§5) In the case of cytostatics the cell-damaging effect is not cell-specific. […] One part of the arrested cells again go into the cycle, the other part may perish (apoptosis). […] The investigations were carried out on MCF-7 and MDA-MB-231 human mammary carcinoma cell lines, PC3 human prostate 15 carcinoma cell line and Ishikawa human endometrium carcinoma cell line. Three hundred cells were set into Petri dishes of 3.5 cm in diameter each. The treatment was carried out once, 24 hours following the explantation, then the colonies formed were counted after 9 to 12 days.

[2] = system: Ishikawa human endometrium carcinoma cell line; experiment: as above; type: cell-based; settings: 50 µM
Experimental: as §5

humoral immune response = experiment: Humoral immune response (antibody production of B-lymphocytes); type: in vivo; settings: mice
Text: as §1

MCF-7 xenograft = experiment: In vivo antitumour effect on MCF-7 xenograft in immunosuppressed mice; design: species or system CBA/Ca mice; settings: MCF-7 xenograft; for Tumour volume as control (%): MI-1892 2 x 25 µg
Experimental: as §2, §3
In the case of MCF-7 tumours (xenografts) the examinations were carried out with passages being in the phase of the 37th and 38th, respectively, transplantations.
In the case of mice bearing MCF-7 xenograft, the treatment was begun in the 4th week following xeno-transplantation.
as §4

MXT mouse mammary tumour = experiment: In vivo antitumour effect on mice bearing MXT mouse mammary tumour; design: species or system CBA/Ca mice
Experimental: The MXT mouse mammary carcinoma contains ER and PgR proteins; furthermore, it contains also GnRH receptors; therefore, this in vivo tumour model is suitable for studying both the direct and indirect effects. The treatment of mice bearing MXT mammary tumour was commenced on the day following transplantation. […] Table VI The animals were daily treated in s.c. route starting from the day following transplantation of MXT mouse mammary tumour. […] MI-1544: 75 µg/day/animal; MI-1892: 75 µg/day/animal.

[3] = treatment week 4, MI-1892 2x25 µg daily s.c.
[4] = treatment week 6, MI-1892 2x25 µg, conjugates 1x50 µg daily s.c.
[5] = MXT mouse mammary tumour, Treatment weeks: 13, 1x75 µg daily s.c.
[6] = MXT mouse mammary tumour, Treatment weeks: 20, 1x75 µg daily s.c.

Question: For `CCN(CC)C(=O)[C@H](CC(=O)N[C@@H](CC(C)C)C(=O)N[C@@H](CCC(N)=O)C(=O)N1CCC[C@H]1C(=O)N[C@H](C)C(N)=O)NC(=O)[C@H](CCCCN)NC(=O)[C@H](CO)NC(=O)[C@@H](Cc1c[nH]c2ccccc12)NC(=O)[C@@H](Cc1ccc(Cl)cc1)NC(=O)[C@@H](Cc1c[nH]c2ccccc12)NC(C)=O` [MI-1892, Ac-D-Trp^1,3,D-Cpa^2,Lys^5,[β-Asp(DEA)]^6,D-Ala^10-hGnRH, reference compound] (Ac-[dW][dPhe(4-Cl)][dW]SKD([Leu-Gln-Pro-dA-NH2])-NEt2), which “increase of the cellular immune response” value (cellular immune response) is on record?
Answer: two-fold

Question: And the inhibition of proliferation (Ishikawa)?
Answer: 14%

Question: What about the Inhibition % (MDA-MB-231 xenograft; [3]) of the same molecule?
Answer: 24.5%

Question: What about the “Tumour volume as control (%)” value (MDA-MB-231 xenograft; [3]) of the same molecule?
Answer: 75.5%

Question: What about the Inhibition % (MDA-MB-231 xenograft; [4]) of the same molecule?
Answer: 22%

Question: And the “Tumour volume as control (%)” value (MDA-MB-231 xenograft; [4])?
Answer: 78%

Question: What about the inhibition of proliferation (PC3) of the same molecule?
Answer: 33%

Question: And the “% Inhibition of colony formation” value [1]?
Answer: 5%

Question: And the “% Inhibition of colony formation” value [2]?
Answer: 10%

Question: And the “increase of the humoral immune response” value (humoral immune response; 50 µg/mouse)?
Answer: more than two-fold

Question: And the “increase of the humoral immune response” value (humoral immune response; 100 µg/mouse)?
Answer: three-fold

Question: And the “decrease in the tumour volume in comparison to controls” value (MCF-7 xenograft; first study, end of 4th week, MI-1892 2 x 25 µg daily, conjugates 50 µg daily once)?
Answer: 20%

Question: What about the “Tumour volume as control (%)” value (MCF-7 xenograft; treatment week 4) of the same molecule?
Answer: 78.5%

Question: What about the “Tumour volume as control (%)” value (MCF-7 xenograft; treatment week 6, conjugates 1 x 50 µg) of the same molecule?
Answer: 79%

Question: What about the Inhibition % (MXT mouse mammary tumour; [5]) of the same molecule?
Answer: 51%

Question: What about the “Tumour volume as control (%)” value (MXT mouse mammary tumour; [5]) of the same molecule?
Answer: 49%

Question: What about the Inhibition % (MXT mouse mammary tumour; [6]) of the same molecule?
Answer: 39%

Question: What about the “Tumour volume as control (%)” value (MXT mouse mammary tumour; [6]) of the same molecule?
Answer: 61%

Question: And the “Tumour volume (cm^3)” value (MXT mouse mammary tumour; day 9, 75 µg/day/animal s.c.)?
Answer: 0.61 cm^3

Question: What about the “Tumour volume as control (%)” value (MXT mouse mammary tumour; day 9, 75 µg/day/animal s.c.) of the same molecule?
Answer: 86%

Question: And the “Tumour volume (cm^3)” value (MXT mouse mammary tumour; day 11, 75 µg/day/animal s.c.)?
Answer: 1.05 cm^3

Question: And the “Tumour volume as control (%)” value (MXT mouse mammary tumour; day 11, 75 µg/day/animal s.c.)?
Answer: 58%

Question: What about the “Tumour volume (cm^3)” value (MXT mouse mammary tumour; day 13, 75 µg/day/animal s.c.) of the same molecule?
Answer: 1.59 cm^3

Question: What about the “Tumour volume as control (%)” value (MXT mouse mammary tumour; day 13, 75 µg/day/animal s.c.) of the same molecule?
Answer: 49%

Question: And the “Tumour volume (cm^3)” value (MXT mouse mammary tumour; day 17, 75 µg/day/animal s.c.)?
Answer: 3.17 cm^3

Question: And the “Tumour volume as control (%)” value (MXT mouse mammary tumour; day 17, 75 µg/day/animal s.c.)?
Answer: 62%

Question: What about the “Tumour volume (cm^3)” value (MXT mouse mammary tumour; day 18, 75 µg/day/animal s.c.) of the same molecule?
Answer: 4.8 cm^3

Question: And the “Tumour volume as control (%)” value (MXT mouse mammary tumour; day 18, 75 µg/day/animal s.c.)?
Answer: 64%

Question: And the “Tumour volume (cm^3)” value (MXT mouse mammary tumour; day 20, 75 µg/day/animal s.c.)?
Answer: 5.73 cm^3

Question: What about the “Tumour volume as control (%)” value (MXT mouse mammary tumour; day 20, 75 µg/day/animal s.c.) of the same molecule?
Answer: 61%

Question: What about the “Tumour volume (cm^3)” value (MXT mouse mammary tumour; day 24, 75 µg/day/animal s.c.) of the same molecule?
Answer: 6.32 cm^3

Question: What about the “Tumour volume as control (%)” value (MXT mouse mammary tumour; day 24, 75 µg/day/animal s.c.) of the same molecule?
Answer: 50%

Question: And the “Tumour volume (cm^3)” value (MXT mouse mammary tumour; day 26, 75 µg/day/animal s.c.)?
Answer: 11.30 cm^3

Question: And the “Tumour volume as control (%)” value (MXT mouse mammary tumour; day 26, 75 µg/day/animal s.c.)?
Answer: 82%

From patent publication EP0728012B1, “NOVEL GnRH ANALOGUES WITH ANTITUMOUR EFFECTS AND PHARMACEUTICAL COMPOSITIONS THEREOF” (Lovas, Sandor, priority 1994, dated 1996)
